Assay results published in patent US20080167290A1, “Combination of a Serotonin Reuptake Inhibitor and Amoxapine” (H. Lundbeck A/S, priority 2003, published 2008).
Read-outs that look alike come from different tables or passages of the source.

System: 5-HT levels in ventral hippocampus
Details: for effects on hippocampal 5-HT levels: amoxapine alone, rat ventral hippocampus microdialysis
Method: Male albino rats of a Wistar-derived strain (285-320 g; Harlan, Zeist, The Netherlands) were used for the experiments. Upon surgery, rats were housed individually in plastic cages (35×35×40 cm), and had free access to food and water. Animals were kept on a 12 h light schedule (light on 7:00 a.m.). The experiments are concordant with the declarations of Helsinki and were approved by the animal care committee of the faculty of mathematics and natural science of the University of Groningen.
Preceding surgery rats were anaesthetised using isoflurane (O2/N2O; 300/300 ml/min). Lidocaine-HCl, 10% (m/v) was used for local anaesthesia.
Rats were allowed to recover for at least 24 h. […] 15 minute microdialysis samples were collected in HPLC vials containing 7.5 μl 0.02 M acetic acid for serotonin analysis.
Twenty-μl microdialysate samples were injected via an autoinjector (CMA/200 refrigerated microsampler, CMA, Sweden) onto a 100×2.0 mm C18 Hypersil 3 μm column (Bester, Amstelveen, the Netherlands) and separated with a mobile phase consisting of 5 g/L di-ammoniumsulfate, 500 mg/L EDTA, 50 mg/L heptane sulphonic acid, 4% methanol v/v, and 30 μl/L of triethylamine, pH 4.65 at a flow of 0.4 ml/min (Shimadzu LC-10 AD). 5-HT was detected amperometrically at a glassy carbon electrode at 500 mV vs Ag/AgCl (Antec Leyden, Leiden, The Netherlands). The detection limit was 0.5 fmol 5-HT per 20 μl sample (signal to noise ratio 3).
Four consecutive microdialysis samples with less then 20% variation were taken as control and set at 100%. […] Treatments were compared versus controls using two way analysis of variance (ANOVA) for repeated measurements, followed by Student Newman Keuls test. […] Level of significance level was set at p<0.05.

SMILES: Clc1ccc2c(c1)C(N1CCNCC1)=Nc1ccccc1O2 [amoxapine]
- effects on hippocampal 5-HT levels (1 μmol/kg s.c., P=0.08): did not induce any significant effects
- effects on hippocampal 5-HT levels (10 μmol/kg s.c., P=0.47): did not induce any significant effects
- response in the 5-HT microdialysis model (summary statement, dose not stated, compared to the serotonin reuptake inhibitor alone): no significant effect
